Reference: ChEMBL document CHEMBL1133357, “Inhibition of neuraminidase with neuraminic acid C-glycosides” (Bioorg Med Chem Lett, 2000)

Test: The compound was tested for its inhibitory activity against bacterial neuraminidase
Parameters: species or system Clostridium perfringens

COC1OC(CO)C(O)C([C@@H](O)C2(C(=O)O)CC(O)C(NC(C)=O)C(C(O)C(O)CO)O2)C1O (stereo not given in full)
Ki: > 1000 µM

CCCCCCCC(O)[C@]1(C(=O)O)C[C@@H](O)[C@@H](NC(C)=O)C(C(O)C(O)CO)O1 (stereo not given in full)
Ki: 16 µM

CC(=O)NC1C(O)CC(C(=O)O)([C@@H](O)C2C(O)C(CO)OC(OC(=O)c3ccccc3)C2O)OC1C(O)C(O)CO (stereo not given in full)
Ki: 110 µM

CC(=O)N[C@H]1C(C(O)C(O)CO)O[C@](C(=O)O)(C(C)(C)O)C[C@H]1O (stereo not given in full)
Ki: 29 µM

CC(=O)NC1C(O)CC(C(=O)O)([C@H](O)C2C(O)C(CO)OC(OC(=O)c3ccccc3)C2O)OC1C(O)C(O)CO (stereo not given in full)
Ki: 229 µM
